Measurements from patent publication US20080260722A1, “Method for High Efficiency Survival/Proliferation of Human Embyonic Stem Cells and Human Embryo Survival in Culture” (The Johns Hopkins University Johns Hopkins Technology …, priority 2004, published 2008).

Experiments:
hES cells [1] = assay: low-density survival assay in MEF-CM with TRK inhibitors; type: cell-based, human; conditions: increasing inhibitor concentrations, versus DMSO vehicle
Experimental: TRK signaling and survival can be blocked by pharmacological inhibition; TRK inhibitors were added to hES cells plated with MEF-CM in the low-density survival assay; hES cells were exposed to increasing concentrations of a GW441756, K252A, or vehicle (DMSO).
Human ES cell lines H1 and H9 were cultured as described by Thornson and colleagues^15 in high glucose DMEM supplemented with L-glutanine, non-essential amino acids, serum replacement (Invitrogen) and 4 ng/ml basic Fibroblast growth factor (Invitrogen). Mouse embryo fibroblasts (MEFs) (Specialty Media). were plated at 5-7×10^6 cells/ml. To prepare single cell suspensions of hES cells, the cells were washed twice with PBS, then incubated in 0.05% trypsin/EDTA (InVitrogen) for 5 minutes at 37° C. The cells were triturated with a 5-ml pipette until a single cell suspension was obtained. […] For low-density survival assays, trypsinized cells were counted using a hemocytometer and 500 cells were plated in each well of 96-well plate containing MEFs or coated with Matrigel (BD Biosciences). […] Individual hES cells or hES cell colonies were counted manually on an inverted microscope. […]
To test this prediction, hES cell survival was measured using the low density survival assay in the presence or absence of two different TRK inhibitors, GW441756 and K252a^17-19.

TRKs = conditions: cited from earlier work
hES cells [2] = assay: low-density survival assay in NTs without bFGF with pathway inhibitors; type: cell-based, human; conditions: single cells at low density in NTs, no bFGF, increasing inhibitor concentrations
Experimental: FIG. 8. PI-3K activity is required for hES cell survival; a. […] NTs have differential effects on AKT and MEK1/2 phosphorylation; hES cells were grown in the presence or absence of NTs (but without bFGF) and cell lysates probed with antibodies to phospho-AKT or phospho-MEK1/2; in the absence of NTs, a weak phospho-AKT band is observed; upon stimulation of hES cells with NTs a stronger band is observed; the intensity of the bands were compared to the total level of AKT and to a loading control (Beta-tubulin); in contrast no change in the level of phospho-MEK1/2 was observed by comparison with the controls.
Human ES cell lines H1 and H9 were cultured as described by Thornson and colleagues^15 in high glucose DMEM supplemented with L-glutanine, non-essential amino acids, serum replacement (Invitrogen) and 4 ng/ml basic Fibroblast growth factor (Invitrogen). Mouse embryo fibroblasts (MEFs) (Specialty Media). were plated at 5-7×10^6 cells/ml. To prepare single cell suspensions of hES cells, the cells were washed twice with PBS, then incubated in 0.05% trypsin/EDTA (InVitrogen) for 5 minutes at 37° C. […] For low-density survival assays, trypsinized cells were counted using a hemocytometer and 500 cells were plated in each well of 96-well plate containing MEFs or coated with Matrigel (BD Biosciences). […] Individual hES cells or hES cell colonies were counted manually on an inverted microscope. […]

hES cells [3] = assay: low-density survival assay with individual neurotrophins on MEFs or Matrigel; type: cell-based, human; conditions: 500 cells/well on MEFs or Matrigel, 0.01-100 ng/ml, 4-5 days
From the text: FIG. 4. Individual neurotrophins have dose-dependent effects on hES cell survival; a. Effect of NTs on hES cell survival at low-density on MEFs. hES cells were trypsinized and plated at low density (500 cells per well) on MEFs in 96-well plates in the presence of NT3, BDNF, NT4, NGF or hES medium lacking added growth factor; After 4-5 days, the colonies (comprised of approximately 7-11 cells) were fixed and stained for alkaline phosphatase; b. […] NTs (BDNF, NT4 and NT3) also have statistically significant differences between concentrations of 0.01-100 ng/ml at p<0.05; c. Phase contrast images (at 4×) of morphology of hES cell colonies observed on MEFs or Matrigel™ in the low-density survival assay.
Human ES cell lines H1 and H9 were cultured as described by Thornson and colleagues^15 in high glucose DMEM supplemented with L-glutanine, non-essential amino acids, serum replacement (Invitrogen) and 4 ng/ml basic Fibroblast growth factor (Invitrogen). Mouse embryo fibroblasts (MEFs) (Specialty Media). were plated at 5-7×10^6 cells/ml. To prepare single cell suspensions of hES cells, the cells were washed twice with PBS, then incubated in 0.05% trypsin/EDTA (InVitrogen) for 5 minutes at 37° C. The cells were triturated with a 5-ml pipette until a single cell suspension was obtained. Trypsin inhibitor (InVitrogen) was added and the cell suspension filtered through a […] (Fisher Scientific) to remove clumps and MEFs. For clonal survival assays, single hES cells were diluted to clonal density and plated into a well of a 96-well plate containing MEFs. For low-density survival assays, trypsinized cells were counted using a hemocytometer and 500 cells were plated in each well of 96-well plate containing MEFs or coated with Matrigel (BD Biosciences). To visualize hES colonies, cultures were fixed in 4% para-formaldehyde in PBS for 30 minutes, washed once in PBS, once in distilled H2O, then stained for alkaline phosphatase activity as described previously^25. Individual hES cells or hES cell colonies were counted manually on an inverted microscope. NGF, BDNF, NT3 and NT4 were purchased from Peprotech. The TRK inhibitors GW441756 (Sigma) and K252A (Calbiochem), PI-3K inhibitor, MAPK inhibitors, STAT3 inhibitor and control peptides (all from Calbiochem) were prepared according to the manufacturer's instructions. For the antibody blocking experiments, antibodies to NGF, NT3, NT4 and BDNF as well as a control antibody were obtained from Promega. Antibodies were added to culture medium at a concentration of 20 ug/ml. Following culture, the cultures were fixed and stained for alkaline phosphatase activity as described above. Each experiment consisted of at least four replicates per treatment and each experiment was repeated at least three times. […]

Question: Which “effect on hES cell survival” value (hES cells [1]) does the source give for Cn1cc(/C=C2\C(=O)Nc3cccnc32)c2ccccc21 [GW441756] here?
Answer: The value was “statistically-significant and dose-dependent effects on hES cell survival”.

Question: What about the “selectivity for TRKs over many kinases including c-Src, VEGFR2, Raf and CDK1” value (TRKs) of the same molecule?
Answer: Its value is 10-fold, or in some cases 100-fold.

Question: For COC(=O)[C@@]1(O)C[C@H]2O[C@]1(C)n1c3ccccc3c3c4c(c5c6ccccc6n2c5c31)C(=O)NC4 [K252a], which “effect on hES cell survival” value (hES cells [1]) is on record?
Answer: Its value is “statistically-significant and dose-dependent effects on hES cell survival”.

Question: With COc1cccc(-c2cc(=O)c3ccccc3o2)c1N [PD98059] as the molecule, how does the “effect on hES cell survival” value (hES cells [2]) read?
Answer: The value was “no effect on hES cell survival”.

Question: Which “effect on hES cell survival” value (hES cells [2]) does the source give for CS/C(N)=C(C#N)/C(C#N)=C(\N)SC [UO124] here?
Answer: Its value is “no effect on hES cell survival”.

Question: With nerve growth factors [NGF] as the molecule, how does the “effect on hES cell survival” value (hES cells [3]) read?
Answer: The value was “slight increase in hES cell survival”.

B1: neurotrophin 4 (protein, UniProt P34130 81-210, looked up)
Neurotrophin-4: GVSETAPASRRGELAVCDAVSGWVTDRRTAVDLRGREVEVLGEVPAAGGSPLRQYFFETRCKADNAEEGGPGAGGGGCRGVDRRHWVSECKAKQSYVRALTADAQGRVGWRWIRIDTACVCTLLSRTGRA
notes: TRK ligand, neurotrophin purchased from Peprotech
Question: For B1, which “effect on hES cell survival” value (hES cells [3]) is on record?
Answer: Its value is “potent, dose dependent effects on hES cell survival”.

B2: brain derived neurotrophic factor (protein, UniProt P23560 19-247, looked up)
Neurotrophic factor BDNF …: APMKEANIRGQGGLAYPGVRTHGTLESVNGPKAGSRGLTSLADTFEHVIEELLDEDQKVRPNEENNKDADLYTSRVMLSSQVPLEPPLLFLLEEYKNYLDAANMSMRVRRHSDPARRGELSVCDSISEWVTAADKKTAVDMSGGTVTVLEKVPVSKGQLKQYFYETKCNPMGYTKEGCRGIDKRHWNSQCRTTQSYVRALTMDSKKRIGWRFIRIDTSCVCTLTIKRGR
notes: as for B1
Question: For B2, which “effect on hES cell survival” value (hES cells [3]) is on record?
Answer: The value was “potent, dose dependent effects on hES cell survival”.

B3: neurotrophin 3 (protein, UniProt P20783 139-257, looked up)
Neurotrophin-3: YAEHKSHRGEYSVCDSESLWVTDKSSAIDIRGHQVTVLGEIKTGNSPVKQYFYETRCKEARPVKNGCRGIDDKHWNSQCKTSQTYVRALTSENNKLVGWRWIRIDTSCVCALSRKIGRT
notes: as for B1
Question: With B3 as the molecule, how does the “effect on hES cell survival” value (hES cells [3]) read?
Answer: The value was “potent, dose dependent effects on hES cell survival”.
